Experimental data taken from publication PMC9635468, “Biological evaluation, docking studies, and in silico ADME prediction of some pyrimidine and pyridine derivatives as potential EGFR^WT and EGFR^T790M inhibitors” (Journal of Enzyme Inhibition and Medicinal Chemistry, 2022).

Test system: HEPG2 cell line
Test: Annexin V-FITC apoptosis detection by flow cytometry
Format: cell-based, human
Conditions: HEPG2, 3.8 µg/mL, 48 h; control 16.73
Description: Furthermore, both compounds 8 and 14 were evaluated for apoptosis using flow cytometry on the HEPG2 cell line. The % rate of total apoptosis for control, compound 8, and compound 14 were 16.73, 22.44, and 48.36 (%), respectively.
Liver cancer cells (HEPG2) were seeded in RPMI-1640 media at a density of 250 X 10^3 cells/mL. Both cell cycle and apoptosis evaluations were performed at 3.8 µg/mL for both compounds 8 and 14. The detailed method is described in the Supplementary data (SI 3).
Annexin V-FITC apoptosis detection kit (Beckman Coulter, California, USA) was used as the manufacturer’s recommendation by using (Beckman Coulter EPICS XL flow cytometer, California, USA). […]
Cell cycle evaluation was performed at 3.8 µg/mL of both compounds […]. After 48 h, the cells were harvested, stained and DNA content was quantified.
The most promising cytotoxic compounds (8 and 14) were further assessed for their inhibitory potential against both EGFR Wild and EGFRT T790M. […] The amount of EGFR required for the assay was calculated and the enzyme was diluted to 1 ng/μL with Kinase assay buffer. […] The plate was incubated at room temperature for 15 minutes and luminescence was measured using the microplate reader.

**Q.** `Oc1n[nH]c2nc(-c3ccco3)cc(-c3cccs3)c12` [Compound 8] was tested. Which “% rate of total apoptosis” value did it give?
**A.** 22.44%

**Q.** `N#Cc1c(-c2cccs2)cc(-c2ccco2)[nH]c1=O` [Compound 14] was tested. Which “% rate of total apoptosis” value did it give?
**A.** 48.36%
